Some results are limits rather than exact numbers.

These results are taken from patent US11590116B2 (THERAVANCE BIOPHARMA R&D IP, LLC, priority 2019, dated 2023).

Assay [1] concerns TGF-β-stimulated SMAD3 phosphorylation in BEAS-2B cells. As to the kind of experiment: Cellular ALK5 potency assay, inhibition of TGF-β stimulated pSMAD3 formation in BEAS-2B cells. It counts as cell-based. Particulars: Homo sapiens; inhibition of TGF-β stimulated pSMAD3 formation, BEAS-2B cells; read-out: BEAS2B pIC50 (converted). Put shortly: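 BEAS-2B human lung epithelial cells, seeded overnight, were pre-treated with compound in HBSS/25 mM HEPES/1% BSA for 1 h at 37 °C, then stimulated with TGF-β (final 10 ng/mL) for 30 min. Lysates were assayed for pSMAD3 by AlphaLISA; pIC50 came from dose-dependent signal change versus TGF-β-stimulated untreated cells.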

In assay [2] the target is T1, recombinant human ALK5 (TGF-βR1) protein (Homo sapiens, UniProt P36897).
T1 construct: purchased Life Technologies PR9075A
T1 sequence (P36897 34-503): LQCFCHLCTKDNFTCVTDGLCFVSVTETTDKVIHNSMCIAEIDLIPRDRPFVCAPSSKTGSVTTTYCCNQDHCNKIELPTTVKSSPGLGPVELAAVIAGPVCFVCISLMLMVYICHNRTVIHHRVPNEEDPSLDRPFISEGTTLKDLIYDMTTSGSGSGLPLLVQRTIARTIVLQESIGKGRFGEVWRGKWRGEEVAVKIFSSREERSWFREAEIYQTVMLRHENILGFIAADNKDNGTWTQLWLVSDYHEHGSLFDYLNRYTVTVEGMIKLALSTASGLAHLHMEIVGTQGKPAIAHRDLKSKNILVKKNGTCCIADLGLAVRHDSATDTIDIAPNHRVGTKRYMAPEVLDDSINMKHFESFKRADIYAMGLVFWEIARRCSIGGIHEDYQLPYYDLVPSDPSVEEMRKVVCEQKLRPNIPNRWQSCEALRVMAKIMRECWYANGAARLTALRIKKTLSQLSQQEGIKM
Description: Biochemical ALK5 (TGF-βR1) assay to measure pKi (LANCE Ultra ULight kinase assay). Particulars: apparent pKi from pIC50 by Cheng-Prusoff, read-out: ALK5 pKi (converted). Put shortly: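 Dose range 10 μM–25 pM; enzyme + compound 60 min RT; ATP added (5× stock 125 μM, 2 mM DTT); 60 min 37 °C; stop with EDTA + Eu anti-phospho-Topo IIα Thr1342 Ab; TR-FRET ex 320/340, em 665 nm. 4-param pIC50 → pKi (Cheng-Prusoff).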
(In general: TR-FRET usually uses a lanthanide donor and a delayed reading to cut background.)

On to `Cc1cccc(-c2nc3ccccn3c2-c2ccc3ncc(N4CCNCC4)cc3c2)n1` [Compound 287, 6-[2-(6-methyl-2-pyridyl)imidazo[1,2-a]pyridin-3-yl]-3-piperazin-1-yl-quinoline], for which the IC50 in assay [1] is 25.1 to 158 nM. Moreover, the Ki in assay [2] was 0.0398 to 0.316 nM.

Regarding `Cc1cccc(-c2[nH]cnc2-c2ccc3ncc(NCCN4CCC5(CCNCC5)C4)cc3c2)n1` [Compound 703, N-[2-(2,8-diazaspiro[4.5]decan-2-yl)ethyl]-6-[5-(6-methyl-2-pyridyl)-1H-imidazol-4-yl]quinolin-3-amine], in assay [1], the IC50 is 25.1 to 158 nM. Moreover, the Ki in assay [2] was 0.0398 to 0.316 nM.

As for `Cc1cccc(-c2[nH]cnc2-c2ccc3ncc(C(=O)OCCN4CC5(CNC5)C4)cc3c2)n1` [Compound 894, 2-(2,6-diazaspiro[3.3]heptan-2-yl)ethyl 6-(5-(6-methylpyridin-2-yl)-1H-imidazol-4-yl)quinoline-3-carboxylate], the IC50 in assay [1] is 200 to 1260 nM. The Ki in assay [2] was 0.398 to 3.16 nM.

In the case of `Cc1cccc(-c2n[nH]cc2-c2ccc3ncc(-c4cc[nH]n4)cc3n2)n1` [Compound 612, 2-[3-(6-methyl-2-pyridyl)-1H-pyrazol-4-yl]-7-(1H-pyrazol-3-yl)-1,5-naphthyridine], the IC50 in assay [1] is 25.1 to 158 nM. Also, the Ki in assay [2] is 0.0398 to 0.316 nM.

Consider `Cc1cccc(-c2n[nH]cc2-c2ccc3ncc(CCC(=O)O)cc3n2)n1` [Compound 63, 3-[6-[3-(6-methyl-2-pyridyl)-1H-pyrazol-4-yl]-1,5-naphthyridin-3-yl]propanoic acid], for which the IC50 in assay [1] was 1580 to 10000 nM. Moreover, the Ki in assay [2] was 3.98 to 31.6 nM.

Regarding `Cc1cccc(-c2[nH]cnc2-c2ccc3ncc(C4=CCC(C(=O)O[C@@H]5CCN(C)C5)CC4)cc3c2)n1` (stereo partly drawn) [Compound 710, [(3R)-1-methylpyrrolidin-3-yl] 4-[6-[5-(6-methyl-2-pyridyl)-1H-imidazol-4-yl]-3-quinolyl]cyclohex-3-ene-1-carboxylate], in assay [1], the IC50 is 25.1 to 158 nM. Besides, the Ki in assay [2] was 0.0398 to 0.316 nM.

Take `Cc1cccc(-c2[nH]cnc2-c2ccc3ncc(-c4nc(C5=CCNCC5)cs4)cc3c2)n1` [Compound 1051, 2-(6-(5-(6-methylpyridin-2-yl)-1H-imidazol-4-yl)quinolin-3-yl)-4-(1,2,3,6-tetrahydropyridin-4-yl)thiazole]: the IC50 in assay [1] was less than 20 nM. For the same molecule, in assay [2], the Ki was 0.0398 to 0.316 nM.

For the molecule `Cc1nc(-c2n[nH]cc2-c2ccc3ncc(-c4cnn5c4CNCC5)cc3n2)ccc1F` [Compound 185, 2-[3-(5-fluoro-6-methyl-2-pyridyl)-1H-pyrazol-4-yl]-7-(4,5,6,7-tetrahydropyrazolo[1,5-a]pyrazin-3-yl)-1,5-naphthyridine], the IC50 in assay [1] was less than 20 nM. For the same molecule, the Ki in assay [2] is 0.0398 to 0.316 nM.

Turning to `Cc1cccc(-c2[nH]c(O)nc2-c2ccc3ncc(C4=CCC5(CCNCC5)CC4)cc3c2)n1` [Compound 1198, 4-[3-(3-azaspiro[5.5]undec-9-en-9-yl)-6-quinolyl]-5-(6-methyl-2-pyridyl)-1H-imidazol-2-ol], the IC50 in assay [1] is 200 to 1260 nM. Also, the Ki in assay [2] was 0.0398 to 0.316 nM.

Consider `Cc1cccc(-c2[nH]cnc2-c2ccc3ncc(-c4ccc5c(c4)CC(N)C5)cc3c2)n1` (stereo not shown) [Compound 163, 5-[6-[5-(6-methyl-2-pyridyl)-1H-imidazol-4-yl]-3-quinolyl]indan-2-amine], for which the IC50 in assay [1] is less than 20 nM. Further, the Ki in assay [2] was 0.0398 to 0.316 nM.

For the molecule `CNCCN1CCn2cc(-c3cnc4ccc(-c5c[nH]nc5-c5cccc(C)n5)nc4c3)nc2C1` [Compound 262, N-methyl-2-[2-[6-[3-(6-methyl-2-pyridyl)-1H-pyrazol-4-yl]-1,5-naphthyridin-3-yl]-6,8-dihydro-5H-imidazo[1,2-a]pyrazin-7-yl]ethanamine], the IC50 in assay [1] was 200 to 1260 nM. For the same molecule, in assay [2], the Ki was 0.0398 to 0.316 nM.

`Cc1cccc(-c2n[nH]cc2-c2ccc3ncc(C(=O)NCCCN4CCOCC4)cc3n2)n1` [Compound 109, 6-[3-(6-methyl-2-pyridyl)-1H-pyrazol-4-yl]-N-(3-morpholinopropyl)-1,5-naphthyridine-3-carboxamide]: in assay [1], the IC50 is 25.1 to 158 nM. Besides, in assay [2], the Ki was 0.0398 to 0.316 nM.

On to `Cc1nc(-c2nc3ccccn3c2-c2ccc3ncc(NCCN4CCN(C(C)C)CC4)cc3n2)ccc1F` [Compound 290, 6-[2-(5-fluoro-6-methyl-2-pyridyl)imidazo[1,2-a]pyridin-3-yl]-N-[2-(4-isopropylpiperazin-1-yl)ethyl]-1,5-naphthyridin-3-amine], for which the IC50 in assay [1] was 25.1 to 158 nM. Further, the Ki in assay [2] is 0.0398 to 0.316 nM.

For the molecule `Cc1cccc(-c2n[nH]cc2-c2ccc3ncc(N(C)C4CCN(C(C)C)C4)cc3n2)n1` (racemic) [Compound 503, N-methyl-6-[3-(6-methyl-2-pyridyl)-1H-pyrazol-4-yl]-N-[rac-(3R)-1-isopropylpyrrolidin-3-yl]-1,5-naphthyridin-3-amine], the IC50 in assay [1] was 25.1 to 158 nM. Further, the Ki in assay [2] is less than 0.0316 nM.

Regarding `Cc1cccc(-c2n[nH]cc2-c2ccc3ncc(CCCN4CCOCC4)cc3n2)n1` [Compound 261, 4-[3-[6-[3-(6-methyl-2-pyridyl)-1H-pyrazol-4-yl]-1,5-naphthyridin-3-yl]propyl]morpholine], in assay [1], the IC50 was 25.1 to 158 nM. The Ki in assay [2] is 0.0398 to 0.316 nM.

For `Cc1cccc(-c2n[nH]cc2-c2ccc3ncc(NCCN4CCOCC4)cc3n2)n1` [Compound 239, 6-[3-(6-methyl-2-pyridyl)-1H-pyrazol-4-yl]-N-(2-morpholinoethyl)-1,5-naphthyridin-3-amine], the IC50 in assay [1] was 25.1 to 158 nM. For the same molecule, the Ki in assay [2] is 0.0398 to 0.316 nM.

For the molecule `Cc1cccc(-c2n[nH]cc2-c2ccc3ncc(NC(=O)CCN4CCOCC4)cc3n2)n1` [Compound 286, N-[6-[3-(6-methyl-2-pyridyl)-1H-pyrazol-4-yl]-1,5-naphthyridin-3-yl]-3-morpholino-propanamide], in assay [1], the IC50 is 25.1 to 158 nM. Further, the Ki in assay [2] is 0.0398 to 0.316 nM.

`Cc1cccc(-c2[nH]cnc2-c2ccc3ncc(N4CCNC(CC(=O)OCC5CNC5)C4)cc3c2)n1` (stereo not shown) [Compound 491, azetidin-3-ylmethyl 2-[4-[6-[5-(6-methyl-2-pyridyl)-1H-imidazol-4-yl]-3-quinolyl]piperazin-2-yl]acetate]: in assay [1], the IC50 is 200 to 1260 nM. In assay [2], the Ki is 0.0398 to 0.316 nM.

In the case of `Cc1cccc(-c2[nH]cnc2-c2ccc3ncc(C(=O)OCCC4CNC4)cc3c2)n1` [Compound 761, 2-(azetidin-3-yl)ethyl 6-[5-(6-methyl-2-pyridyl)-1H-imidazol-4-yl]quinoline-3-carboxylate], the IC50 in assay [1] is 200 to 1260 nM. The Ki in assay [2] is 0.0398 to 0.316 nM.

Regarding `Cc1cccc(-c2[nH]cnc2-c2ccc3ncc(C(=O)O[C@H]4CCCNC4)cc3c2)n1` [Compound 878, (S)-piperidin-3-yl 6-(5-(6-methylpyridin-2-yl)-1H-imidazol-4-yl)quinoline-3-carboxylate], the IC50 in assay [1] was 25.1 to 158 nM. The Ki in assay [2] was 0.0398 to 0.316 nM.

With `Cc1cccc(-c2[nH]cnc2-c2ccc3ncc(-c4ncc(C(=O)OCCN5CCNCC5)s4)cc3c2)n1` [Compound 1187, 2-piperazin-1-ylethyl 2-[6-[5-(6-methyl-2-pyridyl)-1H-imidazol-4-yl]-3-quinolyl]thiazole-5-carboxylate], the IC50 in assay [1] is 25.1 to 158 nM. In assay [2], the Ki was 0.0398 to 0.316 nM.

As for `Cc1cccc(-c2[nH]cnc2-c2ccc3ncc(-c4ccnc(C(=O)O)c4)cc3c2)n1` [Compound 1092, 4-[6-[5-(6-methyl-2-pyridyl)-1H-imidazol-4-yl]-3-quinolyl]pyridine-2-carboxylic acid], in assay [1], the IC50 was 1580 to 10000 nM. In addition, the Ki in assay [2] is less than 0.0316 nM.

As to `Cc1cccc(-c2nnn(Cc3ccccc3)c2-c2ccc3ncc(-c4cnn(C5CCCNC5)c4)cc3c2)n1` (stereo not shown) [Compound 27, 6-[3-benzyl-5-(6-methyl-2-pyridyl)triazol-4-yl]-3-[1-(3-piperidyl)pyrazol-4-yl]quinoline], the IC50 in assay [1] is 25.1 to 158 nM. Further, the Ki in assay [2] was 0.0398 to 0.316 nM.

Turning to `CNCCn1cc(-c2cnc3ccc(-c4c(-c5cccc(C)n5)[nH]c5ccccc45)cc3c2)cn1` [Compound 162, N-methyl-2-[4-[6-[2-(6-methyl-2-pyridyl)-1H-indol-3-yl]-3-quinolyl]pyrazol-1-yl]ethanamine], the IC50 in assay [1] was 200 to 1260 nM. The Ki in assay [2] is 0.0398 to 0.316 nM.

For the molecule `Cc1cccc(-c2[nH]ncc2-c2ccc3ncc(C(=O)N(C)C)cc3n2)n1` [Compound 85, N,N-dimethyl-6-[5-(6-methyl-2-pyridyl)-1H-pyrazol-4-yl]-1,5-naphthyridine-3-carboxamide], in assay [1], the IC50 was 200 to 1260 nM. The Ki in assay [2] was 3.98 to 31.6 nM.

Regarding `Cc1cccc(-c2[nH]cnc2-c2ccc3ncc(C(=O)O[C@H]4CC[C@H](N)CC4)cc3c2)n1` [Compound 763, (4-aminocyclohexyl) 6-[5-(6-methyl-2-pyridyl)-1H-imidazol-4-yl]quinoline-3-carboxylate], the IC50 in assay [1] was 25.1 to 158 nM. Moreover, the Ki in assay [2] was 0.0398 to 0.316 nM.
